Assays:
[1] = Locomotor activity after cerebral ischemia; type: in vivo, rat; conditions: vs other groups
Experimental: (§1) Adult male Sprague-Dawley rats (weight 200 g) were used in this study. All surgical procedures were performed using sterile/aseptic techniques in accordance with Institutional guidelines. Rats were anesthetized with chloral hydrate (0.4 g/kg IP) and subjected to cerebral ischemia. Ligation of the right middle cerebral artery (MCA) and bilateral common carotids arteries (CCAs) was performed by methods described previously (Shyu et al. 2005). The CCAs were clamped with non-traumatic arterial clips. The right MCA was ligated with a 10-0 nylone suture. After 90 min of ischemia, the suture on the MCA and the arterial clips on the CCAs were removed to allow reperfusion. Core body temperature was monitored with a thermistor probe (Hewlett-Packard™ Model 21090A probe, Hewlett-Packard Company™, Andover, Mass.), and maintained at 37° C. with a heating pad during anesthesia. […]
Behavioral assessments were measured on day 28 after stroke. […] The baseline-test scores were recorded in order to normalize those taken after cerebral ischemia. The elevated body swing test (EBST) was used to assess body asymmetry after MCA ligation and evaluated quantitatively as previously described (Shyu et al. 2004). […] The frequency of initial head swing contra-lateral to the ischemic side was counted in twenty continuous tests and was normalized, as follows: % recovery=[1−(lateral swings in twenty tests−10)/10×100%. […]

[2] = Cortical glucose metabolism by FDG-PET after cerebral ischemia; type: in vivo, rat; conditions: one week after treatment
Experimental: as §1, with “anesthesia. After recovery from anesthesia, rat body temperature was maintained at 37° C. with a heat lamp. Experimental rats were subdivided into five groups receiving different types of interference peptides, all fused to a TAT protein transduction domain (PTEN-K13 (SEQ ID NO: 2) 2 hrs or 6 hrs, PTEN-K13R (SEQ ID NO: 3), PTEN-K289 (SEQ ID NO: 4), and vehicle control) via femoral vein with dosage of 8.4 mg/kg at 2 or 6 hours after MCA ligation for three consecutive days.” for “anesthesia.”

KEIVSRNKRRYQED-YGRKKRRQRRR (KEIVSRNKRRYQEDYGRKKRRQRRR; PTEN K13 interference peptide conjugated to TAT protein transduction domain) [Peptide-K13]
locomotor activities (vertical activity, vertical time, number of vertical movements) ([1]; given 2 hours after ischemia): significantly better | locomotor activities (vertical activity, vertical time, number of vertical movements) ([1]; given 6 hours after ischemia): significantly better | FDG uptake over the right cortex (microPET) ([2]; i.v. 8.4 mg/kg given 2 hours after ischemia onset): striking increase | FDG uptake over the right cortex (microPET) ([2]; i.v. 8.4 mg/kg given 6 hours after ischemia onset): striking increase

— patent US9127079B2, “Inhibitors of phosphatase and tensin homolog (PTEN) conjugates” (THE UNIVERSITY OF BRITISH COLUMBIA, priority 2009, dated 2015)
